“Also recorded” adds a separate entry of the source.
Legend:
CD4+ CD25− naïve T cells [1] = experiment: In vitro naïve T cell differentiation, Th1-skew (IFN-γ+); type: cell-based, C57BL/6 mice; conditions: Th1 skewing conditions
Method: (§1) When naïve CD4+ CD25− cells were cultured 72 hours in αCD3/28 coated wells with Th0-, Th1- or Th2-skew cytokines and indole or solvent control, followed by stimulation with PMA, Ionomycin and Golgi Plug for the last 5 hours of culture, no effect on the % of Th1 and Th2 cells was observed (in contrast to the significant effect that indole has on Treg and Th17 cells; see FIGS. 2A and 2B).
(§2) CD4+ CD25− T cells were isolated to high purity (>98%) from the pooled spleen and mesenteric lymph nodes of C57BL/6 mice (Jackson Labs) with a BD FACS Aria II flow cytometer. Fc Block (BD), αCD4-efluor450 (eBioscience clone GK1.5) and αCD25-PECy7 (eBioscience clone PC61.5) antibodies were used for staining before sorting.
(§3) For Th1-skew: 5 ng/mL IL-12 (Peprotech cat. #210-12) and 10 µg/mL αIL-4 (BioXCell clone 11B11) were added to culture. For Th2-skew: 10 ng/mL IL-4 (Peprotech) and 10 μg/mL αIFN-γ (BioXCell clone R4-6A2) were added to culture. For Th17-skew: 10 ng/mL IL-6 (Peprotech), 5 ng/mL IL-23 (R&D), 0.5 ng/mL TGF-β (Peprotech), 10 μg/mL al-4 (BioXCell clone 11B11), and 10 μg/mL αIFN-γ (BioXCell clone R4-6A2) were added to culture. For Treg-skew: 2 ng/mL TGF-β (Peprotech) and 100 U/mL IL-2 (Roche) were added to culture. Sodium Propionate, sodium acetate, sodium butyrate and sodium chloride (all from Sigma-Aldrich) were solubilized in media and added to culture. Indole was solubilized in DMF (both from Sigma-Aldrich) at 2M and brought to final concentration in media. MGCD0103 (Selleck Chemicals) was solubilized in DMF at 2 mM and brought to final concentration in media. A 0.05% DMF solvent control was used for all experiments.

IL-6 receptor / pSTAT3 = experiment: IL-6 receptor levels and STAT3 activity; type: cell-based; conditions: vs control
Method: Indole and 5-HI were assessed for impact on TGF-β receptor expression and SMAD2/3 activity. […] Indole and 5-HI were also assessed for impact on IL-6 receptor levels and subsequent STAT3 activity.

CD4+ CD25− naïve T cells [2] = experiment: In vitro naïve T cell differentiation, Th2-skew (IL-4+); type: cell-based, C57BL/6 mice; conditions: Th2 skewing conditions; vs solvent control
Method: as §1, §2
as §3, with “Indole was solubilized in DMF (both from Sigma-Aldrich) at 2M and brought to final concentration in media. MGCD0103 (Selleck Chemicals) was solubilized in DMF at 2 mM and brought to final concentration in media. A 0.05% DMF solvent control was used for all experiments.” left out

CD4+ CD25− naïve T cells [3] = experiment: In vitro naïve T cell differentiation, Th17-skew (IL-17+ by FACS); type: cell-based, C57BL/6 mice; conditions: for effect on % IL-17+ cells / Th17 differentiation: vs DMF control
Method: Mesenteric lymph node (MLN) and spleen are harvested from WT or FOXP3^EGFP C57Bl/6 mice and homogenized. Spleen tissue is subjected to red blood cell lysis and pooled into a single cell suspension for counting. Counted cells are resuspended in sterile FACS buffer (PBS++ with 05% bovine serum albumin) at a concentration of ˜5×10^7 cells/mL and stained for 45 minutes at 4° C. with anti-CD4 and anti-CD25 fluorophore-conjugated monoclonal antibodies (mAb). After two washes, the stained cells are resuspended at ˜6×10^6 cells/mL in FACS buffer and immediately sorted. […] TDMMs are solubilized in DMF at 2 M and used at desired concentrations (e.g., 0.01, 0.1, 0.5 and 1.0 mM) in growth media; DMF in growth media (0.05%) is used as a solvent control.
The % of Treg or Th17 cells are determined based on the expression of signature transcription factors, FoxP3 and Rorγt, respectively. In addition, signature cytokine markers for Treg and Th17, TGFβ or IL-17, respectively, among others are measured using intracellular cytokine staining. Since it is possible that a cell could be positive for FoxP3 and still express some IL-17, the final % of Tregs are determined as the cell population that is FoxP3+TGFβ+ Rorγt-IL-17−. Similarly, the % of Th17 cells are determined as the population that is FoxP3-TGFβ− Rorγt+IL-17+.
as §2, §3

iTregs = experiment: iTreg cytokine expression (TGF-β, IL-10); type: cell-based, mice
Method: FOXP3-EGFP naïve CD4+ CD25− cells cultured in αCD3/28 coated wells with Treg-skew cytokines and indole or solvent control were cultured for 72 hours, and assessed for FoxP3 expression and proliferation by CFSE dilution.
The iTregs were next assessed for cytokine production when conditioned with indole or butyrate.
For flow cytometry, cells are treated with Golgi plug (Brefeldin A) for four hours and then stained with fluorophore-conjugated mAbs against both inflammatory (e.g., IL-6, IL-12, IL-17, TNF-α) and anti-inflammatory (e.g., IL-10, IL-35, TGF-β) cytokines. Samples are stained with the maximum number of antibodies. Furthermore, expression of established Treg markers (FOXP3, CD25hi, CD103, CD62L, GITR, PD-1, CD152, CD127, ICOS, Granzyme-B) [Vignali, D. A., L. W. Collison, and C. J. Workman, Nat Rev Immunol 8(7):523-32. (2008); Chen, J., et al., Int Immunopharmacol 11(5):610-7 (2011)] and markers of an inflammatory phenotype (RORγT) can be analyzed. […] For all conditions, Tregs generated without the TDMM can be used as the control. The effect of the TDMMs on suppression of effector T cell proliferation is determined as described for FIG. 4. Such assays permit determination of whether the iTregs generated with different TDMMs are functional as natural Tregs.

[4] = tested on: wild-type or AhR KO T cells; experiment: T cell differentiation in wild-type vs AhR KO T cells; type: cell-based, mice
Method: The aryl hydrocarbon receptor (AhR) is implicated in the differentiation of Treg and Th17 cells. The role of AhR was assessed with respect to indole's effect on Treg augmentation. Wild-type and AhR KO naïve T-cells were conditioned with increasing amounts of indole and then assessed for % of FoxP3 expression. […] Additionally, the role of AhR was assessed with respect to indole's effect on Th17 inhibition.
The AhR knockout was further investigated for iTreg homing markers, CD62L and α4β7, as described above.
Next, the AhR knockout was further investigated for the impact of AhR on 5-HI-mediated T cell differentiation.

## c1ccc2[nH]ccc2c1 [Indole, indole]
CD4+ CD25− naïve T cells [1]; regardless of 5-HI presence
  % IFN-γ+ cells, indole combined with butyrate: the % IFN-γ+ cells decreases
CD4+ CD25− naïve T cells [1]; vs 5-HI alone
  % IFN-γ+ cells, indole combined with 5-HI: negated when 5-HI is combined with indole
CD4+ CD25− naïve T cells [1]; vs solvent control
  effect on % Th1 cells (IFN-γ+): no effect; also recorded: did not influence the development of Th1 and Th2 cells; also recorded: did not affect the Th1 skewing of Th1 cells
IL-6 receptor / pSTAT3
  % IL-6 receptor+ cells: decrease
  % pSTAT3+ cells / IL-6 induced stat3: decrease
CD4+ CD25− naïve T cells [2]
  effect on % Th2 cells (IL-4+): no effect; also recorded: did not influence the development of Th1 and Th2 cells
CD4+ CD25− naïve T cells [3]; 1 mM indole, Th17-skewing conditions, solvent control 13.5%
  expansion of Th17 cells (proportion): 1.4%
CD4+ CD25− naïve T cells [3]; Th17 skewing conditions
  % IL-17+ cells, indole added to butyrate and 5-HI: generally reversed after conditioning with indole
  effect on % IL-17+ cells / Th17 differentiation: significantly decreased the % of IL-17+ cells
CD4+ CD25− naïve T cells [3]; Th17 skewing conditions, vs 5-HI alone
  % IL-17+ cells, indole combined with 5-HI: not just negated, but actually reversed
CD4+ CD25− naïve T cells [3]; Th17 skewing conditions, listed as indole
  effect on % IL-17+ cells / Th17 differentiation: dose-dependent; also recorded: inhibits a Th17 response; also recorded: inhibits the development of illustrates % IL-17+ cells
CD4+ CD25− naïve T cells [3]; unpublished data
  Rorγt expression in Th17 cells: inhibits Rorγt expression in Th17 cells
CD4+ CD25− naïve T cells [3]; vs solvent control
  level of IL-17 expression (MFI): decreased
iTregs; indole-conditioned Tregs vs control iTregs (DMF), overnight re-stimulation with αCD3
  TGF-β secretion: secrete more TGF-β than conventional control iTregs (DMF)
iTregs; indole-conditioned iTregs
  IL-10 expression: inhibition of IL-10 expression
iTregs; indole-conditioned vs butyrate-conditioned iTregs
  TGF-β expression: increased TGF-β expression over butyrate-conditioned iTregs
[4]
  % IL-17+ in wild-type vs AhR KO T cells: decreased significantly more in wild-type over AhR KO T cells
  AhR dependence of effects (AhR knockout mice, unpublished data): some of the effects of indole are not AhR dependent
[4]; increasing amounts of test substance
  FoxP3+ % in wild-type vs AhR KO T cells: increased significantly more in wild-type over AhR KO T cells
[4]; with or without RA
  expression of CD62L and α4β7 in FoxP3+ wild-type or AhR KO T cells: roughly equivalent with only minor differences

Reference: patent US20190032014A1, “USING MICROBIOTA METABOLITES TO DIFFERENTIATE NAÏVE T-CELLS AND RELATED METHODS TO INDUCE OR PREVENT INFLAMMATORY CONDITIONS” (THE TEXAS A&M UNIVERSITY SYSTEM, priority 2016, published 2019)
